Measured values taken from BindingDB's records for doi:10.1016/j.bioorg.2015.09.009 (Quaid-I-Azam University, 2015).

What was measured:
Acetylcholinesterase = Acetylcholinesterase (Electrophorus electricus, UniProt O42275); assay: AChE and BChE Inhibitory Activities
[1] = target: Carboxylic ester hydrolase (Equus caballus, UniProt Q9N1N9); assay: AChE and BChE Inhibitory Activities
Sequence of Carboxylic ester hydrolase (Q9N1N9 whole entry): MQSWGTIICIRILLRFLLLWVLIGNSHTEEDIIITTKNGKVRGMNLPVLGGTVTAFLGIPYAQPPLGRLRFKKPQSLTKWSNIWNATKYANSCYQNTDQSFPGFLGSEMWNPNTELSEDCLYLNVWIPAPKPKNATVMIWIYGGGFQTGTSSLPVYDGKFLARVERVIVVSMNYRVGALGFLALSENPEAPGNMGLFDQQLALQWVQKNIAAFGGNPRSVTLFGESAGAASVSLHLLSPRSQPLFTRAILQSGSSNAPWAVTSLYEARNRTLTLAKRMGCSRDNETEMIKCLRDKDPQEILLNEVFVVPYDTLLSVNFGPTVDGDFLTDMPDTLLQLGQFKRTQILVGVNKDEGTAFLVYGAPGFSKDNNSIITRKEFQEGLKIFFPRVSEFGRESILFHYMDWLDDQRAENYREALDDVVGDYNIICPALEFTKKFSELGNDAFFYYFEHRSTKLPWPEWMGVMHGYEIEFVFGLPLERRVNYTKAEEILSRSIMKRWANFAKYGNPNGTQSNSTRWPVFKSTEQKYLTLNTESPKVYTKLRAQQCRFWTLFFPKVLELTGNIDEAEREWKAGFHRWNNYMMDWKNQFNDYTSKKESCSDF

Sequence of Acetylcholinesterase (O42275 whole entry): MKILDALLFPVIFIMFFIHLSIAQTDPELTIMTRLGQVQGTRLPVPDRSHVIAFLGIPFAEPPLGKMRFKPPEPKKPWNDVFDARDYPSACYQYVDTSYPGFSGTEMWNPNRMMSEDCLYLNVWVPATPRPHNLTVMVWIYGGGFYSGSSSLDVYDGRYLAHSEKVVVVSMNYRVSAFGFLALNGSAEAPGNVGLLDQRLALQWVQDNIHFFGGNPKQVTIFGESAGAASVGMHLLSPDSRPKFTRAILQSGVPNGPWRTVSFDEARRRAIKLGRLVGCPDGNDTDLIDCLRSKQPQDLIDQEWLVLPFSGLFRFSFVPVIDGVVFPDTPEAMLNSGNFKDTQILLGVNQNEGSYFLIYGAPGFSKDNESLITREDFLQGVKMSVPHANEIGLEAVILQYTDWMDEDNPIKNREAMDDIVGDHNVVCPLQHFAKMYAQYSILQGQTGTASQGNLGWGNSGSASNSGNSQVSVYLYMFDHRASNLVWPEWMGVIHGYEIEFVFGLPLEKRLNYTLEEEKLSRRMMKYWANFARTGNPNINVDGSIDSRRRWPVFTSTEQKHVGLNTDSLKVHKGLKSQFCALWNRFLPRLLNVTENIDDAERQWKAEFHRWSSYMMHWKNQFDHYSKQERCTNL

Compound | IC50 (Acetylcholinesterase) [µM] | IC50 [1] [µM]
O=C(NC(=S)Nc1cccc(Cl)c1Cl)c1cc2ccccc2oc1=O [1-(2-Oxo-2H-chromene-3-carbonyl)-3-(2,3-dichlorophenyl)thiourea (2d)] | 1.13 | 31.6
O=C(NC(=S)Nc1ccc(Cl)cc1Cl)c1cc2ccccc2oc1=O [1-(2-Oxo-2H-chromene-3-carbonyl)-3-(2,4-dichlorophenyl)thiourea (2h)] | 6.21 | 13.2
O=C(NC(=S)Nc1ccccc1Cl)c1cc2ccccc2oc1=O [1-(2-Oxo-2H-chromene-3-carbonyl)-3-(2-chlorophenyl)thiourea (2g)] | 7.28 | 11.1
COc1ccccc1NC(=S)NC(=O)c1cc2ccccc2oc1=O [1-(2-Oxo-2H-chromene-3-carbonyl)-3-(2-methoxyphenyl)thiourea (2b)] | 13.3 | 0.06
O=C(NC(=S)Nc1ccccc1[N+](=O)[O-])c1cc2ccccc2oc1=O [1-(2-Oxo-2H-chromene-3-carbonyl)-3-(2-nitrophenyl)thiourea (2j)] | 0.23 | 26.1
O=C(NC(=S)Nc1ccc(F)c(Cl)c1)c1cc2ccccc2oc1=O [1-(2-Oxo-2H-chromene-3-carbonyl)-3-(3-chloro-4-fluorophenyl)thiourea (2f)] | 0.75 | 0.84
O=C(NC(=S)Nc1cccc(Cl)c1)c1cc2ccccc2oc1=O [1-(2-Oxo-2H-chromene-3-carbonyl)-3-(3-chlorophenyl)thiourea (2e)] | 0.04 | 1.25
O=C(NC(=S)Nc1cccc(F)c1)c1cc2ccccc2oc1=O [1-(2-Oxo-2H-chromene-3-carbonyl)-3-(3-fluorophenyl)thiourea (2c)] | 17.2 | 16.2
COc1cccc(NC(=S)NC(=O)c2cc3ccccc3oc2=O)c1 [1-(2-Oxo-2H-chromene-3-carbonyl)-3-(3-methoxyphenyl)thiourea (2k)] | 8.43 | 53.2
Cc1cccc(NC(=S)NC(=O)c2cc3ccccc3oc2=O)c1 [1-(2-Oxo-2H-chromene-3-carbonyl)-3-(3-methylphenyl)thiourea (2a)] | 0.86 | 2.15
O=C(NC(=S)Nc1ccc(Cl)cc1)c1cc2ccccc2oc1=O [1-(2-Oxo-2H-chromene-3-carbonyl)-3-(4-chlorophenyl)thiourea (2i)] | 5.1 | 42.2
O=C(NC(=S)NC1CCCCC1)c1cc2ccccc2oc1=O [1-(2-Oxo-2H-chromene-3-carbonyl)-3-(cyclohexyl)thiourea (2l)] | 6.97 | 12.2
